Test results taken from patent US20240261474A1, “BIODEGRADABLE TISSUE SCAFFOLD WITH SECONDARY MATRIX TO HOST WEAKLY ADHERENT CELLS” (THE U.S.A., as represented by the Secretary, Department of …, priority 2021, published 2024).
“Also recorded” adds a separate entry of the source.

What was measured:
Type in all cases: cell-based, human
iPSC-RPE [1] = experiment: Shape metrics (cell area) of drug-treated fully mature iPSC-RPE on transwells; conditions: treated from D21 until fully mature; for iPSC-RPE area: transwells; for iPSC-RPE cell size compared with human RPE populations: reference P1 macular, P3 peripheral
Text: Segmentation Using Convolutional Network: A Convolutional Neural Network (CNN) algorithm was used to recognize RPE cell borders from images of samples labeled by immunofluorescence. The algorithm generates a binary mask of segmented RPE borders; and this output was manually corrected to provide the “right answer” on which the algorithm would learn. Once trained, the CNN algorithm was fed with images of fluorescently labeled RPE cells and the binary mask images that were generated become the input for the REShAPE software for cell shape analysis (FIG. 3).
Morphometric Analysis Using REShAPE: The binary segmentation produced by the CNN algorithm was transferred to REShAPE for cell shape analysis. REShAPE (Retinal Epithelium Shape and Pigment Evaluator) is a Fiji plugin for image analysis. For every cell in a field of view that has been successfully segmented, REShAPE provide quantification of more than 25 different shape metrics. The raw data was stored in a spreadsheet to allow for statistical analysis. In addition, the software created images of segmented cells for every metric analyzed, where every cell is color-coded according to the raw values (FIG. 4). The color-coded images display the location of the cells analyzed. The shape metrics were analyzed with the software to give measurements of cell dimensions, such as area and perimeter, measurements of elongation, such as length of major and minor axis, and measurements of cell regularity, such as hexagonality score and number of neighbors. The analysis was performed in pixel units or μm, as far as the pixel to μm conversion is provided. The analysis of data and the graphs have been done using R software (“R Core Team (2018). R: A language and environment for statistical computing. R Foundation for Statistical Computing, Vienna, Austria. URL https://www.R-project.org/”). The R packages “plyr” and “ggplot2” have been use for data handling and plotting respectively (Wickham, 2009, 2011). The Dunnett's test, a method for post hoc pairwise multiple comparisons, was used to compute statistical analysis by comparing several treatment groups to control groups. A 95% family-wise confidence level has been used. […] Shapiro-Wilk's test and one-way ANOVA were carried out using the R package “dplyr” (Wickham et al., dplyr: A Grammar of Data Manipulation. Retrieved from https://cran.r-project.org/package=dplyr, 2019), while Q-Q plots were drawn using the R package “ggpubr” (Kassambara, ggpubr: “ggplot2” Based Publication Ready Plots. Retrieved from cran.r-project.org/package=ggpubr, 2020). […]
Subsequently, shape metrics were analyzed to confirm the effect of the drugs on cell areas. […]

iPSC-RPE [2] = experiment: Scanning electron microscopy of apical processes; conditions: SEM; for apical processes average transversal length / apical processes average transversal width: transversal section; for type of apical processes: DMSO control shows both petal and finger-like
Procedure: FIG. 11. Defining petal (undulated) and finger-like apical processes. The transversal section of apical processes was measured to precisely define their shape. Petal-like apical processes, obtained by treating RPE cells with AGN 193109, have an average transversal length of 1.68 μm (length min 0.5, max 4 μm) and width of 0.20 μm (width min 0.1, max 1 μm). The petal-like apical processes are also wavy along their length. The width of the undulation ranges from 0.2 to 2 μm. Finger-like apical processes, obtained by treating RPE cells with endo-IWR-1, are cylindrical and have the same average transversal length and width of 0.23 μm (min 0.1, max 1 microns). An example of how measurements of the apical processes was done is shown for each type of apical processed.
(§1) Different techniques were used to study RPE morphologic features.
(§2) Finally, transmission electron microscopy (TEM) was used to detect fine morphological alterations, whereas scanning electron microscopy (SEM) was essential to study modifications in apical processes structures. […] In DMSO-treated iPSC-RPE we found both types of apical processes, petal and finger-like.

iPSC-RPE [3] = experiment: Hematoxylin and eosin staining, gross morphology of the monolayer; conditions: H&E, AGN 193109 0.2 μM, endo-IWR-1 4 uM
Procedure: Brightfield imaging was used to determine RPE pigmentation defects, while hematoxylin and eosin (H&E) staining was valuable to inspect gross morphologic alterations of the monolayer. A section of transwell membrane was cut and mounted on a glass slide for brightfield imaging. Pigmentation levels were preserved after ENDO-1-IWR and AGN 193109 treatments as compared to DMSO-treated iPSC-RPE.
(§3) AGN 193109 was used at 0.2 μM and endo-IWR-1 at 4 uM. Both drugs were dissolved in DMSO, so that the final concentration of DMSO was not more than 0.1%. The final concentration of DMSO control was 0.1%. The compounds were added in RPE maturation medium until cells were mature. Gross cell morphology was also analyzed (FIGS. 20B, 20D, and 20F, left image) to detect possible abnormalities. Fine intracellular structures were examined for alterations with transmission electron microscopy (TEM, FIGS. 20B, 20D, and 20F, right image).

iPSC-RPE [4] = experiment: Transmission electron microscopy, fine intracellular structures; conditions: TEM, AGN 193109 0.2 μM, endo-IWR-1 4 uM
Procedure: as §2, §3

iPSC-RPE [5] = experiment: Phenotypic characterization of selected drug treatments (TER, brightfield, H&E, TEM, SEM); conditions: for induced RPE phenotype: cell size and apical processes; for effect on iPSC-RPE health: verified by TER, brightfield, H&E and TEM
Text: Eleven compounds were selected for further phenotypic characterization based on their initial effect in RPE cell size. […] Because the macula is dominated by cones while the periphery is dominated by rods, RPE cells in these two different regions might be enriched in one of the two apical process structures. It was hypothesized that the phenotype of RPE apical processes will serve as an additional discriminatory factor, other than RPE morphometry.
as §1
Starting at D21, iPSC-RPE were treated with the different compounds. At D40 immature RPE were enriched by negative selection, as per differentiation protocol, and seeded on transwells for maturation. iPSC-RPE were treated with the compounds for other 6 weeks until cells were fully mature (FIG. 1 and FIG. 11).

`O=C(Nc1cccc2cccnc12)c1ccc(N2C(=O)C3C4C=CC(C4)C3C2=O)cc1` (stereo not drawn) [ENDO-1-IWR, 4-(1,3,3a,4,7,7a-Hexahydro-1,3-dioxo-4,7-methano-2H-isoindol-2-yl)-N-8-quinolinyl-Benzamide] was tested, and the iPSC-RPE area (iPSC-RPE [1]) was 251.8±218.4 μm^2, the “iPSC-RPE cell size compared with human RPE populations” value (iPSC-RPE [1]) was “comparable to cells of peripheral RPE population P3; also recorded: increases cell sizes up to the dimensions of the peripheral RPE population P3; also recorded: able to reproduce the cellular size of macular population (P1) and peripheral population (P3) respectively; also recorded: increases RPE cell size to match human peripheral RPE population P3” and the “apical processes average transversal length” value (iPSC-RPE [2]) was 0.23 μm. For the same molecule, the “apical processes average transversal width” value (iPSC-RPE [2]) was 0.23 μm, the “type of apical processes” value (iPSC-RPE [2]) was “enriched uniquely by finger-like apical processes; also recorded: enrich RPE cells with petal-like and finger-like apical processes, respectively; also recorded: enriches these cells with finger-like apical processes” and the “type of apical processes” value (iPSC-RPE [2]; listed as Endo-IWR-1) was “enriched cells with finger-like apical processes”. For the same molecule, the gross cell morphology (iPSC-RPE [3]) was “no gross morphological alterations were detected”, the gross cell morphology (iPSC-RPE [3]; listed as endo-IWR-1) was “nor did they affect gross or fine cell morphology” and the fine intracellular structures (iPSC-RPE [4]) was “no fine intracellular structure defects were identified”. The fine intracellular structures (iPSC-RPE [4]; listed as endo-IWR-1) was “nor did they affect gross or fine cell morphology”, the “induced RPE phenotype” value (iPSC-RPE [5]) was “induces a peripheral RPE phenotype” and the “effect on iPSC-RPE health” value (iPSC-RPE [5]) was “not disruptive of iPSC-RPE health; also recorded: did not affect the healthy RPE phenotype”.
In the case of `Cc1ccc(C2=CCC(C)(C)c3ccc(C#Cc4ccc(C(=O)O)cc4)cc32)cc1` [AGN 193109, 4-[2-[5,6-Dihydro-5,5-dimethyl-8-(4-methylphenyl)-2-naphthalenyl]ethynyl]-benzoic acid], the iPSC-RPE area (iPSC-RPE [1]) is reported as 161.8±149.7 μm^2, the “iPSC-RPE cell size compared with human RPE populations” value (iPSC-RPE [1]) is reported as “comparable to the dimension of macular RPE population (P1); also recorded: shifts iPSC-RPE cell sizes toward macular RPE population (P1); also recorded: able to reproduce the cellular size of macular population (P1) and peripheral population (P3) respectively” and the “apical processes average transversal length” value (iPSC-RPE [2]) is reported as 1.68 μm. The “apical processes average transversal width” value (iPSC-RPE [2]) was 0.20 μm, the “type of apical processes” value (iPSC-RPE [2]) was “enriched RPE cells with petal-like apical processes (with undulation); also recorded: enrich RPE cells with petal-like and finger-like apical processes, respectively” and the gross cell morphology (iPSC-RPE [3]) was “no gross morphological alterations were detected; also recorded: nor did they affect gross or fine cell morphology”. The fine intracellular structures (iPSC-RPE [4]) was “no fine intracellular structure defects were identified; also recorded: nor did they affect gross or fine cell morphology”, the “induced RPE phenotype” value (iPSC-RPE [5]) was “induces a macular RPE phenotype” and the “effect on iPSC-RPE health” value (iPSC-RPE [5]) was “not disruptive of iPSC-RPE health; also recorded: did not affect the healthy RPE phenotype”.
